Assay results from patent US8637568B2, “Serotonin reuptake inhibitors” (Theravance, Inc., priority 2010, dated 2014).

Legend:
[1] = molecular target: T1, human recombinant serotonin transporter (hSERT) (Homo sapiens, UniProt P31645); assay: hSERT binding assay (3H-citalopram membrane radioligand binding); conditions: inhibition of 3H-citalopram binding to membranes from HEK-293 cells expressing hSERT; Cheng-Prusoff; read-out: SERT pKi (converted)
T1 construct: expressed in transfected cells; host or cells: HEK-293 (stably transfected), membrane preparation
T1 sequence (P31645 whole entry): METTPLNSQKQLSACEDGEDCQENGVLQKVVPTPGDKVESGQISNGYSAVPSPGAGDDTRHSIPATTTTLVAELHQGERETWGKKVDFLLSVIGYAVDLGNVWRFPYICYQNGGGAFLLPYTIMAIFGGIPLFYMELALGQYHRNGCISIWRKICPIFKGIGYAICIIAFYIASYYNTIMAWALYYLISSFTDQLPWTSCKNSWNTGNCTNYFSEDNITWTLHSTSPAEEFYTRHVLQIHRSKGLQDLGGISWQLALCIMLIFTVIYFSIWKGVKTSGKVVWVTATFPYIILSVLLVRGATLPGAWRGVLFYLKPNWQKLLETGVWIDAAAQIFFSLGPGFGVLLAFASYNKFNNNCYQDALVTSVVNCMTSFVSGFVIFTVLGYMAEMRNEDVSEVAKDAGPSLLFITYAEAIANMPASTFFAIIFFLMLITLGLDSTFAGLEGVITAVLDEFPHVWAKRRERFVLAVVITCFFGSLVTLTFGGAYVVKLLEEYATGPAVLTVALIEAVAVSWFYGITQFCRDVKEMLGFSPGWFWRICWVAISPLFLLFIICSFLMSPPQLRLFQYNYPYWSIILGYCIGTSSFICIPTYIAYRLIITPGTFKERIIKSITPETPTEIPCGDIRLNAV
Protocol: Protein concentration of the membrane suspension was determined using a Bio-Rad Bradford Protein Assay kit. Membranes were snap frozen and stored at −80° C.
Following a 60 minute incubation at 22° C. […] IC50 values were generated from concentration response curves using the Sigmoidal Dose Response (variable slope) algorithm in Prism GraphPad.

[2] = molecular target: T2, human recombinant SERT (HEK293-hSERT cells) (Homo sapiens, UniProt P31645); assay: hSERT neurotransmitter uptake assay; type: cell-based; conditions: serotonin reuptake inhibition in HEK293-hSERT cells; read-out: SERT pIC50 (converted)
T2 construct: expressed in transfected cells; host or cells: HEK293 (stably transfected), whole cells
T2 sequence (P31645 whole entry): as above
Protocol: HEK293 cells stably-transfected with human recombinant SERT (HEK293-hSERT) were grown in Dulbecco's Modified Eagle's Medium supplemented with 10% dialyzed fetal bovine serum, 100 µg/ml penicillin, 100 µg/ml streptomycin, 2 mM L-glutamine, and 250 μg/ml of the aminoglycoside antibiotic G418. Cells were incubated in a 5% CO2, humidified incubator at 37° C.
In pre-incubation studies, test compound was added to cells for 30 minutes at 37° C. prior to the addition of fluorescent substrate. […] For real-time measurements, compounds were either preincubated (as above) or mixed with substrate prior to addition, and kinetic measurements, relative fluorescence units (RFU integrated over 0.5 ms),were made using a cycle time of 1 min.

Row | Structure (SMILES) | Ki [1] [nM] | IC50 [2] [nM]
1 | O=C(O)c1ccc(S(=O)(=O)NC[C@@H](Oc2ccc(C(F)(F)F)cc2)[C@H]2CCNC2)cc1 [Example 3-21, 4-[(S)-2-(S)-Pyrrolidin-3-yl-2-(4-trifluoromethylphenoxy)ethylsulfamoyl]-benzoic acid] | ≤ 100 | ≤ 100
2 | CS(=O)(=O)NC[C@@H](Oc1ccc(C(F)(F)F)cc1)[C@H]1CCNC1 [Example 3-1, N-[(S)-2-(S)-Pyrrolidin-3-yl-2-(4-trifluoromethylphenoxy)ethyl]-methanesulfonamide] | ≤ 10 | ≤ 10
3 | CC(=O)N(C[C@@H](Oc1ccc(C(F)(F)F)cc1)[C@H]1CCNC1)S(C)(=O)=O [Example 3-4, N-Acetyl-N-[(S)-2-(S)-pyrrolidin-3-yl-2-(4-trifluoromethylphenoxy)ethyl]-methanesulfonamide] | ≤ 10 | ≤ 10
4 | CS(=O)(=O)CS(=O)(=O)NC[C@@H](Oc1ccc(C(F)(F)F)cc1)[C@H]1CCNC1 [Example 3-12, C-Methanesulfonyl-N-[(S)-2-(S)-pyrrolidin-3-yl-2-(4-trifluoromethylphenoxy)ethyl]methanesulfonamide] | – | ≤ 10
